# From patent publication US20240208953A1, “"Cyclopenta[c]pyrrol Negative Allosteric Modulators of NR2B"” (Novartis AG, priority 2021, published 2024)
# Target: NR2B (Rattus norvegicus (Rat), UniProt Q00960)
# Assay: NR2B rat cortical neuron calcium influx assay
# Assay type: cell-based
# Conditions: rat cortical neurons, glutamate and glycine stimulated calcium influx
# Description: Example 1: NR2B Rat Cortical Neuron Calcium Influx Assay Protocol
# Embryonic day 18 timed pregnant Sprague Dawley rats were euthanized according to Institutional Animal Care and Use Committee (IACUC) protocol. After cutting medially through the skin and exposing the uterus and embryos, fetuses were removed and placed in cold Hibernate medium. Each embryo's brain was extracted and cerebral cortices were isolated by removing the midbrain and meninges. The dissected cortices were then dissociated into the neurons using papain dissociation system (Worthington Biochemical Corporation) according the manufacturer's protocol.
# Dissociated neurons were counted and plated into 384-well poly-D-lysine coated plates (Corning® BioCoat™) at a density of 20,000 cells/well in 30 μL of Neurobasal/B27 complete medium. Neurons were cultured at 37° C. for 2 days. On the assay day, medium was removed and cells were incubated with 20 μL/well of calcium dye (Calcium 6 Assay Kit, Molecular Devices) suspended in HBSS with 1.8 mM Ca^2+ (Ca-HBSS) according to the manufacturer's instruction.
# Compounds of interest from 10 mM stock were serially diluted into 3× of desired concentrations in 1.8 mM Ca-HBSS, and 10 μL were added to the wells. Compound and the neurons were incubated at 37° C. for 2 hours in the dark.
# On FDSS7000EX (Hamamatsu Photonics), a fluorescence measuring instrument, 10 μL of 4× ligand solution containing glutamate and glycine made in 1.8 mM Ca^2+-HBSS were added to each well. The fluorescent signals were collected before and after the addition of ligands for a total of 2 minutes. The data were converted to a ratio of the peak fluorescence to the fluorescence at the beginning of the measurement.
# Each data point was measured in duplicates. Dose response curves were used to identify IC50 and maximal inhibition values. IC50 represents the concentration in μM of compound at which there is a half-maximal compound effect. Maximal inhibition of a compound is expressed as a percent of the highest inhibition of activity over a no compound control.
# Sequence of NR2B (Q00960 27-1482, other chains not shown): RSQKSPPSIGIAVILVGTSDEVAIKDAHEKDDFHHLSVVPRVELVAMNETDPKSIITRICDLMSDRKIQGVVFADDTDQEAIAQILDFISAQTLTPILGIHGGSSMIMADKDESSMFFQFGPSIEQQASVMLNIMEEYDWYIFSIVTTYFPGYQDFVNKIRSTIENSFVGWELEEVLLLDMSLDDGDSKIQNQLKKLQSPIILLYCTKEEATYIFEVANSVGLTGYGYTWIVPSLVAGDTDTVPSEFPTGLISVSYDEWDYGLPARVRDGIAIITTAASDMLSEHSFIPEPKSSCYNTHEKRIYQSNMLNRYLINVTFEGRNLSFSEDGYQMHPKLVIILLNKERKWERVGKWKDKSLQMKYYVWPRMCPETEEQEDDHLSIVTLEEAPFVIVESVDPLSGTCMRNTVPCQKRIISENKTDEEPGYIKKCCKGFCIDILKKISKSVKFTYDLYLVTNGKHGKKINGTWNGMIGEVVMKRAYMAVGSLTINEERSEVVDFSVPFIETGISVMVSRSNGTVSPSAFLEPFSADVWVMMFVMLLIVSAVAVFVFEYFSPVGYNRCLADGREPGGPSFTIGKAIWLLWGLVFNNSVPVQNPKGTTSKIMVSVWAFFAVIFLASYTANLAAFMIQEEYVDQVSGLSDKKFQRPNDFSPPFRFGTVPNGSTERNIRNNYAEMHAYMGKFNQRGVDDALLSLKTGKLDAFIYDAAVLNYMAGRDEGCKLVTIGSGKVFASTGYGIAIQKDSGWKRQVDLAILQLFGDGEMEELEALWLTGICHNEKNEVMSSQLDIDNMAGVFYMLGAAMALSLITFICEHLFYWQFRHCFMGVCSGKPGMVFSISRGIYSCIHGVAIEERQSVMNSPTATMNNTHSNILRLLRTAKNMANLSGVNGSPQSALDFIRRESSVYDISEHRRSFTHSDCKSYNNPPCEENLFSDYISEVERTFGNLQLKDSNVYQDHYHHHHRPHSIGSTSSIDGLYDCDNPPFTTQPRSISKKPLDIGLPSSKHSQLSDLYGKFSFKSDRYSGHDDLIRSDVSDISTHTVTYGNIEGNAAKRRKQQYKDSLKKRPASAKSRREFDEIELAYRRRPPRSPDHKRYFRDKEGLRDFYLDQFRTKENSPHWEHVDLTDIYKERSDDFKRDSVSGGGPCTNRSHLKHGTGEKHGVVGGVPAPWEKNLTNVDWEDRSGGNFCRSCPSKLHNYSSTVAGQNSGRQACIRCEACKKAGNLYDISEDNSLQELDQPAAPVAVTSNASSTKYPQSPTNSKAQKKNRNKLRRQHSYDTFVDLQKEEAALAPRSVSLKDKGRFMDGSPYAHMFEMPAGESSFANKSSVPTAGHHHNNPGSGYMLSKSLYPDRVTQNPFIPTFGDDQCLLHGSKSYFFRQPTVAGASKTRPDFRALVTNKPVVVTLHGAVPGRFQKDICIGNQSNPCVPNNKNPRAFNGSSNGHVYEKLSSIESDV
row,SMILES,IC50 [µM]
1,"O=C1Nc2ccc([C@H](O)CN3C[C@H]4C[C@H](Oc5ccccc5F)C[C@@]4(O)C3)cc2CCO1 (single isomer, unassigned) [Example 12B]",0.00025
2,"O=C1Cc2cc([C@H](O)CN3C[C@H]4C[C@H](Oc5ccccc5)C[C@@]4(O)C3)ccc2N1 [Example 2B, 5-((S)-1-hydroxy-2-((3aS,5S,6aR)-3a-hydroxy-5-phenoxyhexahydrocyclopenta[c]pyrrol-2(1H)-yl)ethyl)indolin-2-one]",0.063
3,"O=C1CCc2cc([C@H](O)CN3C[C@H]4C[C@H](Oc5cccc(F)c5)C[C@@]4(O)C3)ccc2N1 (single isomer, unassigned) [Example 23B]",0.28
4,"O=C1CCc2cc([C@H](O)CN3C[C@H]4C[C@H](Oc5ccccc5F)C[C@@]4(O)C3)ccc2N1 [Example 5B, 6-((S)-2-((3aS,5S,6aR)-5-(2-fluorophenoxy)-3a-hydroxyhexahydrocyclopenta[c]pyrrol-2(1H)-yl)-1-hydroxyethyl)-3,4-dihydroquinolin-2(1H)-one]",0.13
5,"O=C1CCc2cc([C@H](O)CN3C[C@H]4C[C@H](Oc5c(F)cccc5F)C[C@@]4(O)C3)ccc2N1 (single isomer, unassigned) [Example 27B]",0.29
6,"O=C1CCc2cc([C@@H](O)CN3C[C@H]4C[C@H](Oc5ccc(F)cc5)C[C@@]4(O)C3)ccc2N1 (single isomer, unassigned) [Example 22A]",0.023
7,"O=C1CCc2cc([C@@H](O)CN3C[C@H]4C[C@H](Oc5cccc(F)c5)C[C@@]4(O)C3)ccc2N1 (single isomer, unassigned) [Example 23A]",0.033
8,O=C1Nc2c(F)cc([C@@H](O)CN3C[C@H]4C[C@H](Oc5ccccc5)C[C@@]4(O)C3)cc2C[C@@H]1F [Example 19],0.0087
9,"O=C1Cc2cc([C@H](O)CN3C[C@H]4C[C@H](Oc5ccccc5)[C@H](O)[C@@]4(O)C3)ccc2N1 [Example 3D, 5-((S)-2-((3aS,4S,5S,6aR)-3a,4-dihydroxy-5-phenoxyhexahydrocyclopenta[c]pyrrol-2(1H)-yl)-1-hydroxyethyl)indolin-2-one]",0.075
10,"CC1(C)Cc2cc([C@H](O)CN3C[C@H]4C[C@H](Oc5ccccc5)C[C@@]4(O)C3)ccc2NC1=O (single isomer, unassigned) [Example 11B]",0.0026
11,"O=C1CCc2cc([C@H](O)CN3C[C@H]4C[C@H](Oc5ccc(F)cc5F)C[C@@]4(O)C3)ccc2N1 (single isomer, unassigned) [Example 25B]",0.014
12,"O=c1[nH]c2ccc([C@@H](O)CN3C[C@H]4C[C@H](Oc5ccccc5F)C[C@@]4(O)C3)cc2o1 (single isomer, unassigned) [Example 40A]",0.0069
13,"O=C1CCc2cc([C@H](O)CN3C[C@H]4C[C@H](Oc5cccc(F)c5F)C[C@@]4(O)C3)ccc2N1 (single isomer, unassigned) [Example 24B]",0.057
14,"O=C1CCCc2cc([C@H](O)CN3C[C@H]4C[C@H](Oc5ccccc5F)C[C@@]4(O)C3)ccc2N1 (single isomer, unassigned) [Example 43B]",0.0012
15,"O=C1Nc2c(cc([C@H](O)CN3C[C@H]4C[C@H](Oc5ccccc5)C[C@@]4(O)C3)c(F)c2F)CO1 (single isomer, unassigned) [Example 38B]",0.0078
16,"O=C1CCc2cc([C@H](O)CN3C[C@H]4C[C@H](Oc5ccc(F)cc5)C[C@@]4(O)C3)ccc2N1 (single isomer, unassigned) [Example 22B]",0.42

row,SMILES,IC50 [µM]
1,"O=C1CCc2cc([C@@H](O)CN3C[C@H]4C[C@H](Oc5ccc(F)cc5F)C[C@@]4(O)C3)ccc2N1 (single isomer, unassigned) [Example 25A]",> 1.1
2,"O=C1CCc2cc([C@@H](O)CN3C[C@H]4C[C@H](Oc5c(F)cccc5F)C[C@@]4(O)C3)ccc2N1 (single isomer, unassigned) [Example 27A]",> 1.1
3,"O=c1[nH]c2ccc([C@@H](O)CN3C[C@H]4C[C@H](Oc5ccccc5)C[C@@]4(O)C3)cc2o1 (single isomer, unassigned) [Example 39A]",0.026
4,"O=C1Cc2cc([C@@H](O)CN3C[C@H]4C[C@H](Oc5ccccc5)[C@H](O)[C@@]4(O)C3)ccc2N1 [Example 3C, 5-((R)-2-((3aS,4S,5S,6aR)-3a,4-dihydroxy-5-phenoxyhexahydrocyclopenta[c]pyrrol-2(1H)-yl)-1-hydroxyethyl)indolin-2-one]",0.4
5,"O=C1CCc2cc([C@H](O)CN3C[C@H]4C[C@H](Oc5ccccc5F)C[C@@]4(O)C3)cc(F)c2N1 (single isomer, unassigned) [Example 6B]",1.06
6,"O=c1[nH]c2ccc([C@H](O)CN3C[C@H]4C[C@H](Oc5ccccc5)C[C@@]4(O)C3)cc2o1 (single isomer, unassigned) [Example 39B]",0.086
7,"O=C1COCc2cc([C@H](O)CN3C[C@H]4C[C@H](Oc5ccccc5)C[C@@]4(O)C3)cc(F)c2N1 (single isomer, unassigned) [Example 32B]",0.6
8,"O=C1CCc2cc([C@@H](O)CN3C[C@H]4C[C@H](Oc5cc(F)ccc5F)C[C@@]4(O)C3)ccc2N1 (single isomer, unassigned) [Example 26A]",0.25
9,"O=c1[nH]c2c(F)cc([C@@H](O)CN3C[C@H]4C[C@H](Oc5ccccc5)C[C@@]4(O)C3)cc2cc1F (single isomer, unassigned) [Example 20A]",0.002
10,"O=C1Nc2c(F)cc([C@H](O)CN3C[C@H]4C[C@H](Oc5ccccc5)C[C@@]4(O)C3)c(F)c2CO1 (single isomer, unassigned) [Example 37B]",0.0065
11,"O=C1CCc2cc([C@H](O)CN3C[C@H]4C[C@H](Oc5cc(F)ccc5F)C[C@@]4(O)C3)ccc2N1 (single isomer, unassigned) [Example 26B]",0.47
12,"O=C1CCCc2cc([C@H](O)CN3C[C@H]4C[C@H](Oc5ccccc5)C[C@@]4(O)C3)cc(F)c2N1 (single isomer, unassigned) [Example 30B]",0.017
13,"O=C1CCc2cc([C@H](O)CN3C[C@@H]4C[C@@H](Oc5ccc(F)cc5F)C[C@]4(O)C3)ccc2N1 (single isomer, unassigned) [Example 25D]",0.00022
14,"O=C1CCc2cc([C@H](O)CN3C[C@@H]4C[C@@H](Oc5ccc(F)cc5)C[C@]4(O)C3)ccc2N1 (single isomer, unassigned) [Example 22D]",0.0016
15,"O=C1CCc2cc([C@@H](O)CN3C[C@H]4C[C@H](Oc5cccc(F)c5F)C[C@@]4(O)C3)ccc2N1 (single isomer, unassigned) [Example 24A]",0.016
16,"O=c1[nH]c2ccc([C@H](O)CN3C[C@H]4C[C@H](Oc5ccccc5F)C[C@@]4(O)C3)cc2o1 (single isomer, unassigned) [Example 40B]",0.028

# Target: P-glycoprotein (P-gp) (Homo sapiens (Human), UniProt P08183)
# Assay: MDCK-MDR1 permeability / efflux assay
# Assay type: in vitro ADME
# Conditions: dog, MDCK-MDR1, pH 7.4, efflux ratio, read-out: MDCK-MDR1 ER
# Procedure: Example 4. Experimental Measurement of Efflux with MDCK-MDR1 Protocol
# Cell Culture. MDCK-MDR1 cells were cultured at 37° C. under a 5% CO2 atmosphere, at 95% relative humidity in DMEM containing 10% FBS, penicillin-streptomycin (100 μg/mL), and 2 mM Ala-Gln. Cells were passaged every 3-4 days. For assay purposes, cells were seeded at a density of approximately 265,000 cells/cm^2 of a 96-well Transwell plate (Corning Life Sciences, Acton, MA) and cultured in the same media noted above for a period of 4 days.
# Assay. The determination of the apparent permeability (Papp) was performed in both the A→B (apical to basal) and B→A (basal to apical) directions where each compound was assayed in triplicate. The zwitterion bestatin, a poorly permeably compound, was used as marker of monolayer integrity. To initiate the assay, media was aspirated, and the cells and basal chambers were washed three times with Hank's Balanced Salt Solution (HBSS) containing 10 mM HEPES (pH 7.4). Compound test solutions were prepared in triplicate in HBSS containing 10 mM HEPES (pH 7.4) and 0.02% bovine serum albumin (BSA) to a final concentration of 10 μM and centrifuged for 2 min at 4000×g, then applied to the donor compartment at time zero. Additionally, at time zero, a 37° C. solution without test articles (HBSS+10 mM HEPES (pH 7.4) plus 0.02% BSA) was added to the receiver chamber of the Transwell plate. A time zero sample of the donor solution was also sampled for further analysis. The assay was conducted for a period of 120 min at 37° C. without shaking. At the time of assay termination, samples were taken from each donor compartment, and each acceptor compartment of the Transwell plate. To each of the 0 and 120 min samples was added an internal standard solution containing glyburide in water:acetonitrile, 50:50 (v:v). Concentration curves were prepared using a Labcyte Echo in the same matrix noted above. Samples and concentration curve samples were centrifuged for 10 min at 4000×g and subsequently analyzed by mass spectroscopy.
# Mass Spectroscopy. Assay samples were loaded onto a RapidFire C4 cartridge by means of a RapidFire autosampler (Agilent, Santa Clara, CA). […] Mass spectroscopy was performed using an AB Sciex AP15500 (Sciex, Frammingham, MA) equipped with a turbo ion spray source. The analyte concentration was calculated from the chromatographic peak area ratio of analyte to internal standard (glibenclamide, m/z 494→169), using Multiquant software V3.0 (Sciex, Framingham, MA).
# Calculations. Papp values were determined as
# Percent recovery values were determined as:
# where VA is the volume of the acceptor (mL), S is the surface area of the membrane, D0 is the donor solution concentration at t=0, D120 is the donor solution concentration at t=120, A120 is the acceptor solution concentration at t=120, and t=time (seconds).
# The suitability of a compound for oral dosing and/or for use as a CNS therapeutic is usually conducted by MDCK-MDR1 permeability assay to investigate its drug efflux potential mediated by P-glycoprotein (P-gp). MDCK-MDR1 permeability has been used as a predictor of blood brain barrier permeability in terms of efflux ratio (ER).
# Sequence of P-glycoprotein (P-gp) (P08183 whole entry): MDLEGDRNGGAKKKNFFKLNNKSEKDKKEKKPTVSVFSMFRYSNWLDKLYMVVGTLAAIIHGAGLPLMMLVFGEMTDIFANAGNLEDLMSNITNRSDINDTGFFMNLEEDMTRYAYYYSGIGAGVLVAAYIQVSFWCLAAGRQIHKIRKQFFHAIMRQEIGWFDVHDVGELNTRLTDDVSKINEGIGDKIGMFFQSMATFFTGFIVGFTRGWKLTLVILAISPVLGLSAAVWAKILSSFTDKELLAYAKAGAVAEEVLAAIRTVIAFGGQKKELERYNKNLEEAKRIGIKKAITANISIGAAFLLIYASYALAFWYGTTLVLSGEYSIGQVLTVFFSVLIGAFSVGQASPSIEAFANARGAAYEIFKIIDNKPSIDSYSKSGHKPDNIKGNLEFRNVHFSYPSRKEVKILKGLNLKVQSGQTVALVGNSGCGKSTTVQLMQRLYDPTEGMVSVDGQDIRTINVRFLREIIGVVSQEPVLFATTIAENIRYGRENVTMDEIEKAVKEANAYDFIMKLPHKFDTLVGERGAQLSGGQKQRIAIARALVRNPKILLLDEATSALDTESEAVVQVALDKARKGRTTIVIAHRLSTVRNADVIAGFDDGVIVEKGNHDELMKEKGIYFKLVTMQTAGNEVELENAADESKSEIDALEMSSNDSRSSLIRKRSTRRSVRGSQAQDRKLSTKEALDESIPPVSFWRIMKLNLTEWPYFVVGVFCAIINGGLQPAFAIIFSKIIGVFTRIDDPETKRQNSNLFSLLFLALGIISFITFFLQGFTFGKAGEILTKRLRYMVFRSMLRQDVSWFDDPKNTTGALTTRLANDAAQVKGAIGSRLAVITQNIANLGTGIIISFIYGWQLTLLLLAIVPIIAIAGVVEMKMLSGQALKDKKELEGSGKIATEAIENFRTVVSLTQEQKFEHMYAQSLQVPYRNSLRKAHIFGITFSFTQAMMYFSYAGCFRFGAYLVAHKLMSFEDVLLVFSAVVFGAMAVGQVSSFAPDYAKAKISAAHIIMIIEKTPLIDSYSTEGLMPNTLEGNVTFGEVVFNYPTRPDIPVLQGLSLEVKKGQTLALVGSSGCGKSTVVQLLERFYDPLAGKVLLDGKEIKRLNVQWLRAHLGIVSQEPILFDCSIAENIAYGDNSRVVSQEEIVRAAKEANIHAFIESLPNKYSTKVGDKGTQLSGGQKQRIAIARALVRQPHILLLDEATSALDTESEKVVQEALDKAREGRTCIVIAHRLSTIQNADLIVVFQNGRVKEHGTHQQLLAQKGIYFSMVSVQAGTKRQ
row,SMILES,"efflux ratio at 120 min, 10 μM"
1,"O=C1Cc2cc([C@H](O)CN3C[C@H]4C[C@H](Oc5ccccc5)C[C@@]4(O)C3)ccc2N1 [Example 2B, 5-((S)-1-hydroxy-2-((3aS,5S,6aR)-3a-hydroxy-5-phenoxyhexahydrocyclopenta[c]pyrrol-2(1H)-yl)ethyl)indolin-2-one]",3.54
